# According to patent US20080194522A1, “Development of Fluorogenic Substrates For Monoamine Oxidases (Mao-A and Mao-B)” (priority 2004, published 2008):
# Legend:
# [1] = Photophysical characterization (absorbance, extinction coefficient, emission, quantum yield); assay type: physicochemical
# Experimental: Extinction coefficients were the average of three independent determinations of three different readings from the lowest energy transition at three concentrations. Quantum yields are the average of three determinations of both quantum yield standard 9,10-diphenylanthracene and the synthesized coumarines at 340 nm unless otherwise indicated.
# All spectra were recorded in 100 mM sodium phosphate (pH 7.4) unless otherwise indicated. Recorded λmax is that of the longest wavelength transition. Extinction coefficients were reported as the average of at least three independent preparations of the probes. Fluorescence measurements were taken on a Jobin Yvon Fluorolog fluorescence spectrofluorometer (slits 3, HV 750) in 100 mM sodium phosphate pH 7.4 buffer unless otherwise indicated. Quantum yields were measured relative to 9,10 diphenylanthracene in EtOH.4 Reported quantum efficiencies are the average of at least three independent preparations of the probes.
# The extinction coefficient ε relates the absorbance of a compound to its concentration as expressed in Beer's law (A=εbc where A is absorbance, b is pathlength, and c is concentration). Extinction coefficients were the average of three independent determinations of three different readings of absorbance from the lowest energy transition at three concentrations. The quantum yield of fluorescence is the fraction of absorbed photons that lead to fluorescence; the number of photons fluoresced divided by the number of photons absorbed. To obtain the quantum yields of the synthesized coumarines their efficiency was compared to standard 9,10-diphenylanthracene at 340 nm in three different determinations. The effect of different solvents on the fluorescence of the compounds was also tested. The compounds were dissolved in methanol, chloroform and toluene and their emissions spectrum was taken.
# MAO-B = molecular target: T1, MAO-B (Bos taurus, UniProt P56560); test: Monoamine oxidase B substrate assay, beef liver mitochondria, fluorescence detection of indole product
# T1 sequence (P56560 1-520): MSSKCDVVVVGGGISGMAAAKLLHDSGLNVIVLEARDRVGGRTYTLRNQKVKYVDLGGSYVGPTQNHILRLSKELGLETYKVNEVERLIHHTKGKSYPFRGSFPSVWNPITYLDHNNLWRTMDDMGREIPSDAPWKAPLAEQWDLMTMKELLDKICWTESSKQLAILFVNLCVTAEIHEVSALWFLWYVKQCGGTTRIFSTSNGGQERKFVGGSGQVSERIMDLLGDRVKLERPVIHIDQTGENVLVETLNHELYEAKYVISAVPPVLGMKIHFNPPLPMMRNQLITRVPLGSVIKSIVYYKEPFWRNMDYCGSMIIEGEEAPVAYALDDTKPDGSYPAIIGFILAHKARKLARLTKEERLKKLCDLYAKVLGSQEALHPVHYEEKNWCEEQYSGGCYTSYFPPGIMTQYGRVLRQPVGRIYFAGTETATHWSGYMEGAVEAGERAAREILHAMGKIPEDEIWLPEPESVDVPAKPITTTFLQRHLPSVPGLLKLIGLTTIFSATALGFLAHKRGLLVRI
# MAO-A = molecular target: T2, MAO-A (Homo sapiens, UniProt P21397); test: Monoamine oxidase A substrate assay, human placenta mitochondria, fluorescence detection of indole product
# T2 sequence (P21397 1-527): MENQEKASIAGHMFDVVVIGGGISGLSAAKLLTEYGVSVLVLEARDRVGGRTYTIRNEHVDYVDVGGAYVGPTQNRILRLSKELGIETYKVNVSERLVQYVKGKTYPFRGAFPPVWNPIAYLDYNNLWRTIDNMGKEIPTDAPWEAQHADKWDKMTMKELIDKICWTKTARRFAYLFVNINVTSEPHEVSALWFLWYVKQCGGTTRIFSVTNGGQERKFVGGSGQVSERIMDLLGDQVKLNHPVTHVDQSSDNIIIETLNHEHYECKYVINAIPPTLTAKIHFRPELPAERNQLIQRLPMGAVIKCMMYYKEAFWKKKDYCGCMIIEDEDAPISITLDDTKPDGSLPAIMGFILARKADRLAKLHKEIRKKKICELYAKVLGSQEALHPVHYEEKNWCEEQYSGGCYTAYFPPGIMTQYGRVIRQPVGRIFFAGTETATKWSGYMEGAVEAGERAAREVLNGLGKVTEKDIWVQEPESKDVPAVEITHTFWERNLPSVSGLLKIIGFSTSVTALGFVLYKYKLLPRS
# [2] = Fluorescence switch / apparent fluorescence increase, product versus substrate; assay type: physicochemical
# Experimental: Apparent fluorescence increase was calculated by comparing the slopes (arbitrary fluorescence units/μM) of standard curves of chemically synthesized product and substrate concentration versus fluorescence intensity. Calculation of the apparent fluorescence increase is shown below for probe 9, which has a 21000% apparent fluorescence increase in emission intensity at λem=524 nm. The constants fP and fS were calculated from the slope of a line of fluorescence intensity versus concentration of chemically synthesized product indole 10 and substrate 9, respectively. These slopes were obtained from calibration curves of at least five concentrations of 9 and 10 in phosphate buffer (pH 7.4). The preparations of the compounds in mitochondrial assay buffer have negligible effects on fS and fP.
# [3] = Solubility in aqueous solution; assay type: physicochemical; settings: in words
# Chemical stability = settings: in words
# [4] = 24-hour incubation, room temperature, pH 7.4
Structure (SMILES),"Φ ([1]; Table 2, in water, relative to 9,10-diphenyl anthracene (excited at 340 nm))","ε (M^−1cm^−1) ([1]; Table 2 diamines, in water)","λmax (nm) ([1]; Table 2 diamines, in water)",enzyme-catalyzed conversion of diamine to indole (MAO-B; [4]),"kcx (MAO-B; Table 6, Monoamine Oxidase B)",substrate quality for MAO-B (MAO-B; in words),enzyme-catalyzed conversion of diamine to indole (MAO-A; [4]),"kcx (MAO-A; Table 6, Monoamine Oxidase A)",substrate quality for MAO-A (MAO-A; in words),emission wavelength [1],"fluorescence, in words ([1]; aqueous / phosphate buffer)","fluorescence emission intensity increase, indole/pyrrolocoumarin versus aniline/aminocoumarin [2]",solubility in aqueous solution [3],chemical stability (Chemical stability)
NCCc1cc2oc(=O)ccc2cc1N [III],0.0017,"2,000 ± 100 M^−1cm^−1",352 nm,significant conversion,20.62 min⁻¹,good substrate for MAO-B,significant conversion,0.475 min⁻¹,good substrate for MAO-A,–,–,–,–,–
"CCN(CC)c1ccc2c(C)c(-c3ccc4[nH]ccc4c3)c(=O)oc2c1 [Probe 17, 7-Diethylamino-3-(1H-indol-5-yl)-4-methyl-chromen-2-one]",–,–,–,–,–,–,–,–,–,475 nm,highly fluorescent,12 fold,reasonably soluble,chemically and photo-physically stable
